Source: patent publication US20140271584A1, “Methods and Compositions for Direct Reprogramming of Somatic Cells to Stem Cells, and Uses of these Cells” (THE RESEARCH FOUNDATION FOR THE STATE UNIVERSITY OF NEW YORK, priority 2013, published 2014)

System: AF cells
Assay: Colony formation of OCT4 lentivirus-transduced AF cells in ES or endothelial cell medium
Assay type: cell-based, human
Experimental: Transduction via integrating plasmid. Lentivirus based vectors carrying human SOX2 or OCT4 gene, or GFP only gene, each expressed under control of either the SFFV promoter or EF1α promoter, were packaged using the 293FT cell line (Invitrogen/Life Technologies, Inc.) to produce lentivirus. The viruses were concentrated by centrifugation and stored at −80° C. One day before infection, tissue culture dishes were coated with poly-L-ornithine (PLO) and laminin AF, BM, or HFF cells were seeded at a density of 15,000 cells/cm^2. Lentiviruses were added at a MOI of 10-100 in the presence of 8 μg/ml polybrene (EMD Millipore, Billerica, Mass.) for 6 hours. Efficiency was measured after 24-48 hours by expression of green fluorescence.
After viral transduction, cells were transferred to human ES (embryonic stem cell) medium (supplemented with 20% Knockout Serum replacement, 2 mM glutamine, 0.1 mM non-essential amino acids, 10 ng/ml bFGF, 100 μM β-Mercaptoethanol) or endothelial cell medium, such as EGM2 (Lonza, Inc.).

Structure (SMILES)	increase of the efficiency of colony formation (accelerated and increased) (0.1 mM in the culture media)	increase of the efficiency of colony formation (accelerated and increased) (10 μM in the culture media)
Nc1ncnc2c1nc(Br)n2[C@@H]1O[C@@H]2COP(=O)(O)O[C@H]2[C@H]1O [8-Br-cAMP, (1S,6R,8R,9R)-8-(6-amino-8-bromopurin-9-yl)-3-hydroxy-3-oxo-2,4,7-trioxa-3λ5-phosphabicyclo[4.3.0]nonan-9-ol]	approximately 15%	–
Cc1cccc(-c2n[nH]cc2-c2ccc3ncccc3n2)n1 [compound 616452, 2-(3-(6-Methylpyridin-2-yl)-1H-pyrazol-4-yl)-1,5-naphthyridine]	–	approximately 15%
